# Results as given in patent US20040063165A1, “Light-activated in vitro assay process for luciferase bioluminescence” (priority 2003, published 2004).
# How the values were obtained:
# luciferase = experiment: UV uncaging of caged ATP to trigger luciferase chemiluminescent reaction (Example 1); type: biochemical; details: 1 millisecond UV pulse, Xenon lamp; pulse power varied 40, 60, 80 mJ per pulse; ATP the limiting factor
# Description: In this experiment, caged ATP was utilized to control the reaction. […] Reagents:
# Lyophilized luciferase/lyophilized D-Luciferin were dissolved in Tricine buffer [50 mM N-tris(hydroxymethyl)methylglycine, adjusted with NaOH to pH 7.8, Lot 1418] both supplied by Kikkoman as assay kit, CheckLite HS Plus, Catalog # 60342).
# 5 mM Mg citrate in phosphate buffered saline (PBS, pH 7.4)
# Caged ATP (p-(1-(4,5-dimethoxy-2-nitrophenyl)ether, disodium salt-caged adenosine-5-triphosphate) in methanol, 5 mg in 300 μL (Molecular probes, Catalog # A-1049).
# In a total reaction volume of 20 μL, the following were mixed in a suitable reaction cell
# 10 μL of Luciferase/D-Luciferin solution mix,
# 5 μL of 5 mM Mg Citrate in PBS
# 5 μL of caged ATP solution.
# [1] = test system: Firefly luciferase enzyme; details: 1 millisecond UV pulse, Xenon lamp; pulse power varied 40, 60, 80 mJ per pulse; D-Luciferin the limiting factor
# Description: In this experiment, caged D-Luciferin was utilized to control the reaction.
# Functional D-Luciferin was delivered to the reaction from caged D-Luciferin upon exposure of the reaction components to a pulse of UV light with suitable power.
# Firefly luciferase enzyme dissolved in Tricine buffer pH 7.8 (50 mM N-Tris (hydroxymethyl) methylglycine) adjusted with NaOH, supplied by Kikkoman Catalog LUC T
# 5 mM Mg citrate in PBS, pH 7.4-
# 100 mM ATP solution, pH 7.5 (Amersham Pharmacia, Catalog No. 272056).
# In a total reaction volume of 25 μL, the following components were added as solutions to a suitable cell:
# 10 μL of luciferase solution
# 5 μL of 5 mM Mg citrate in PBS
# 5 μL of 1 mM ATP solution
# 5 μL caged D-Luciferin solution.
# The cell with the components was exposed to a pulse of UV (1 millisecond_pulse by a Xenon Lamp, Rapp Optoelectronic). The power of the UV pulse was varied (40, 60, 80 mJ per pulse).
Molecule,amount of light released from the reaction (luciferase),amount of light released from the reaction [1]
"COc1cc(C(C)OP(=O)([O-])OP(=O)(O)OP(=O)([O-])OCC2OC(n3cnc4c(N)ncnc43)C(O)C2O)c([N+](=O)[O-])cc1OC.[Na+].[Na+] (centres unmarked) [caged ATP, p-(1-(4,5-dimethoxy-2-nitrophenyl)ether, disodium salt-cagedadenosine-5-triphosphate)]",increased with the increase of the UV pulse power,
"1-(4,5-dimethoxy-2-nitrophenyl)ethyl ester—caged D-luciferin",,increased with the increase of the UV pulse power
